Earlier results on one compound are cited in US8853275B2, “Concurrent therapy regime/regimen for the treatment of acne related diseases” (Galderma Research & Development, priority 2008, dated 2014).

The conditions of this data set: when combined with BPO; unlike tretinoin.

On to `COc1ccc(-c2ccc3cc(C(=O)O)ccc3c2)cc1C12CC3CC(CC(C3)C1)C2` [Adapalene, 6-[3-(1-adamantyl)-4-methoxyphenyl]-2-naphtoïc acid], for which the “Stability in the presence of light” value is reported as “stable in the presence of light”.
